{"source": "patent US9492450B2", "about": "“Inhibition of dynamin related protein 1 to promote cell death” (University of Pittsburgh—of the Commonwealth System of …, priority 2011, dated 2016)", "key": {"MDA-MB-231 cells [1]": {"test_system": "MDA-MB-231 cells", "test": "Western blot of DNA damage response proteins", "format": "cell-based, human", "settings": "4 h; mdivi-1 alone at 50 μM", "description": "(§1) FIG. 22A-E. Mdivi-1 inhibits DNA replication and its combination with cisplatin enhances replication stress leading to efficient G2 phase arrest of the cell cycle. (A) MDA-MB-231 cells were treated with cisplatin alone, mdivi-1 alone or the combination at the indicated concentrations for 4 h. Western blot was then performed to detect the phosphorylation status of key proteins involved in DNA damage response. (B) MDA-MB-231 cells were treated with 20 μM cisplatin alone, 20 μM mdivi-1 alone or the combination for 20 h. The distribution of cell cycle was determined by triple staining of the cells with anti-BrdU, anti-phospho-Histone H3 and PI. (C) Quantification of the distribution of cell cycle analyzed in panel B. (D) The effect of mdivi-1 on the rate of DNA synthesis was analyzed by a histogram, which was generated from the data obtained in panel B, showing the changes of BrdU intensity. (E) Cells were treated as described in B and γ-H2AX was analyzed by western blot.\nWhole cell lysate was prepared by lysing cells in cell lysis buffer (Cell signaling technology) containing complete protease inhibitor (Roche). Cell lysates were then cleared at 15,000 rpm for 15 min at 4° C. […] The protein content was quantified using a Bio-Rad Protein Assay kit (Bio-Rad Laboratories, Hercules, Calif.). […]"}, "MDA-MB-231 cells [2]": {"test_system": "MDA-MB-231 cells", "test": "Cell cycle analysis by anti-BrdU, anti-phospho-Histone H3 and PI staining", "format": "cell-based, human", "settings": "20 μM, 20 h", "description": "as §1\nCells were treated with 20 μM cisplatin, 20 μM mdivi-1, or the combination of 20 μM cisplatin and 20 μM mdivi-1 for 20 h. S phase cells were then pulse-labeled with 10 μM BrdU for 30 min at 37° C. Cells were trypsinized, fixed in 70% ice-cold ethanol, and incubated overnight at 4° C. DNA was denatured in 2 N HCl containing 0.5% Triton X-100, and neutralized with 0.1 M Na2B4O7. Cells were then stained with FITC-labeled anti-BrdU antibody (BD Biosciences, San Jose, Calif.). To determine the number of cells in mitosis, cells were then stained with Alexa Fluor 647-conjugated phospho-Histone H3 (Ser 10) antibody (Cell signaling technology). To measure DNA content, cells were incubated in PI solution (PBS containing 50 μg/ml of PI and 40 μg/ml of RNase A) for 30 min at room temperature. Samples were analyzed on a CyAn ADP Analyzer (Beckman Coulter, Brea, Calif.). Data were analyzed using Summit software."}, "MDA-MB-231 cells [3]": {"test_system": "MDA-MB-231 cells", "test": "CyQUANT cell number after 2 h exposure and wash-out", "format": "cell-based, human", "settings": "50 μM, 2 h exposure then wash-out", "description": "FIG. 19A-E. Combination of cisplatin and mdivi-1 produces synergistic pro-apoptotic effect in multidrug resistant tumor cells. (A) MDA-MB-231 cells were treated with increasing doses of mdivi-1 for 72 h. The survival was assessed by MTS assay. […] (B) MDA-MB-231 cells were treated with increasing doses of cisplatin alone or the combination with 20 μM or 50 μM of mdivi-1 for 72 h. The survival was assessed by MTS assay. (C) MDA-MB-231 cells were exposed to cisplatin and mdivi-1 alone or combination at their IC50 or 0.5 fold of their IC50. The combination index (CI) and the normalized isobologram were generated using CompuSyn. (D) MDA-MB-231 cells were treated with DMSO, 50 μM cisplatin alone, 50 μM mdivi-1 alone, or the combination for 2 h. The compounds were then washed out and the cell number was determined every 24 h by CyQuant assay. (E) MDA-MB-231 cells were treated with agents alone, or the combination at a ratio of 1:1 for 20 h. The number of apoptotic cells was determined with antibody recognizing cleaved caspase-3 followed by flow cytometry.\nTo explore this effect further, MDA-MB-231 cells were treated with DMSO as a vehicle control, 50 μM of cisplatin, 50 μM of mdivi-1, or 50 μM of cisplatin plus 50 μM of mdivi-1 for 2 hours. The cells were then washed with growth media and plated in black 96-well plates. Survivals were measured by CyQUANT assay. Data represent mean±SD. n=4 wells. […]"}, "[4]": {"test": "Solubility of mdivi-1 with carrier compounds", "format": "physicochemical", "settings": "1 mM mdivi-1"}, "MDA-MB-231 cells [5]": {"test_system": "MDA-MB-231 cells", "test": "DNA content flow cytometry (propidium iodide): G2/M arrest and aneuploidy", "format": "cell-based, human", "settings": "mdivi-1 50 μM 24 and 48 h, siRNA 72 and 96 h", "experimental": "Cell cycle distribution was determined by flow cytometric analysis of propidium iodide stained cells. The percentage of the cells containing a DNA content of 4N and a DNA content>4N are indicated. […] MDA-MB-231 cells were treated with either 5 μg/ml oligomycin, 5 μM FCCP, or 10 μg/ml antimycin A for 24 h. Cell cycle distribution was determined as described above.\nCell cycle distribution was determined by flow cytometric analysis of propidium iodide stained cells. The percentage of the cells containing a DNA content of 4N and >4N are indicated. Data presented in this figure are representative of three independent experiments.\nFor DNA content analysis, cells were trypsinized and fixed in 70% ice-cold ethanol overnight at 4° C. After fixation, the cells were washed with 1% BSA/PBS, and permeabilized using 0.25% triton-X 100 in 1% BSA/PBS. Cells were then incubated in PI solution (PBS containing 50 μg/ml of PI and 40 μg/ml of RNase A) for 30 min at room temperature."}}, "data": [{"smiles": "N.N.[Cl][Pt][Cl]", "note": "[cisplatin]", "values": [{"measurement": "phosphorylation / activation of Chk1", "setting": "MDA-MB-231 cells [1]", "value": "phosphorylated"}, {"measurement": "BrdU incorporation into DNA", "setting": "MDA-MB-231 cells [2]", "value": "abolished the uptake of BrdU"}, {"measurement": "G2 phase cells", "setting": "MDA-MB-231 cells [2]", "value": 18.97, "unit": "%"}, {"measurement": "effect on cell growth / survival after short exposure", "setting": "MDA-MB-231 cells [3]", "value": "only slightly slowed down cell growth"}]}, {"smiles": "COc1cc(-n2c(=S)[nH]c3ccccc3c2=O)c(Cl)cc1Cl", "note": "[mdivi-1]", "values": [{"measurement": "solubility of mdivi-1", "setting": "[4]; 40% 2-Hydroxypropyl-β-cyclodextrin/PBS", "value": "improve the solubility"}, {"measurement": "solubility of mdivi-1", "setting": "[4]; human serum albumin as vehicle, 15% HSA in 0.85% sodium chloride", "value": "improve the solubility"}, {"measurement": "phosphorylation / activation of Chk1", "setting": "MDA-MB-231 cells [1]", "value": "induced activation of Chk1"}, {"measurement": "BrdU incorporation into DNA", "setting": "MDA-MB-231 cells [2]", "value": "substantially decreased"}, {"measurement": "S phase cells", "setting": "MDA-MB-231 cells [2]", "value": 44.23, "unit": "%"}, {"measurement": "effect on cell growth / survival after short exposure", "setting": "MDA-MB-231 cells [3]", "value": "reversible"}, {"measurement": "G2/M cell cycle arrest and aneuploidy", "setting": "MDA-MB-231 cells [5]", "value": "induces G2/M cell cycle arrest and aneuploidy"}, {"measurement": "G2/M cell cycle arrest and aneuploidy", "setting": "MDA-MB-231 cells [5]; listed as Mdivi-1", "value": "induced the similar G2/M cell cycle arrest and aneuploidy"}]}]}
